Test results reported in patent publication US20100016285A1, “HETEROCYCLIDENE-N-(ARYL) ACETAMIDE DERIVATIVE” (MOCHIDA PHARMACEUTICAL CO., LTD., priority 2007, published 2010).

Molecular target: T1, human TRPV1 (Homo sapiens, UniProt Q8NER1)
T1 construct: expressed in transfected cells; host or cells: CHO-K1 cells, pCAGGS vector, clones selected by limiting dilution
T1 sequence (Q8NER1 whole entry): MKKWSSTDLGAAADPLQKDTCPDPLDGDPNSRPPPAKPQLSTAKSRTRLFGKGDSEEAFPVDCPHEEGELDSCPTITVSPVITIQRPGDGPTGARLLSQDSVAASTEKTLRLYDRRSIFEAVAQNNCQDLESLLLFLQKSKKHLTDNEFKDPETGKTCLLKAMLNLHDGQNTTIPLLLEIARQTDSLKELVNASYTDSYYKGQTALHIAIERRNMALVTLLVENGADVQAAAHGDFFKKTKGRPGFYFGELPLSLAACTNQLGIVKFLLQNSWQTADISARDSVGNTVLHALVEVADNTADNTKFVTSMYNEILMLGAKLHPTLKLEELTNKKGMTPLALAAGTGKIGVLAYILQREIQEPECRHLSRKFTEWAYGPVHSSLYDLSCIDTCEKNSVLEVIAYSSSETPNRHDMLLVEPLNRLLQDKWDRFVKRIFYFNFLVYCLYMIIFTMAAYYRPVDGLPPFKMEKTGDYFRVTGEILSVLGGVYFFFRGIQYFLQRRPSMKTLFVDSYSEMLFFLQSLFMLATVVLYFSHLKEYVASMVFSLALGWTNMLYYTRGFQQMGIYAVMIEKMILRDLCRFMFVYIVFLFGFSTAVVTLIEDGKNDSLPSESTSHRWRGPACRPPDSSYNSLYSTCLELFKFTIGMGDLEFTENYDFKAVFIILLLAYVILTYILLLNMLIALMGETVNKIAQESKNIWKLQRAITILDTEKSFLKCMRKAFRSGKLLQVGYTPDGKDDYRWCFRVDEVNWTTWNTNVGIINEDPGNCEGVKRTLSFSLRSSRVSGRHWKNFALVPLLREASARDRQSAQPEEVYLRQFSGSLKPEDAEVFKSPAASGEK
Assay: Capsaicin-induced Ca influx in transformed CHO cells, FDSS-6000 (b-1), A2 value
Format: cell-based
Conditions: concentration shifting the capsaicin concentration-reaction curve two times rightward; CHO cells expressing TRPV1
Excerpt: (1) Measurement of Capsaicin-Induced Ca Influx in a Transformed CHO Cell Line Expressing Human TRPV1
(a) Establishment of a Transformed CHO Cell Line Expressing Human and Rat TRPV1
Human and rat vanilloid receptor 1 (hTRPV1 and rTRPV1) cDNA was cloned from human brain and rat dorsal root ganglion, respectively. The cloned TRPV1 cDNA was incorporated in a pCAGGS vector. The vector was introduced to a CHO-K1 cell line, thus performing transformation. Clones obtained by limiting dilution were stimulated with capsaicin. Clones with a high responsiveness were selected using an increase in the Ca concentration as an indicator. The selected clones were used for the following experiment.
(b-1) Measurement of Ca Influx using FDSS-6000
The transformed CHO cells expressing human or rat TRPV1 were seeded in a 96-well plate (with black walls and transparent bottoms, manufactured by Greiner) at a density of 40,000 cells per well. The cells were cultured at 37° C. in 5% CO2 atmosphere for one night. A loading solution of FLIPR Calcium 3 assay kit (manufactured by Molecular Devices Corporation) containing 2.5 mmol/L of probenecid was then added to each of the wells in the same amount as the culture medium, and the cells were cultured at 37° C. for 60 minutes. For three minutes after the cells were stimulated with capsaicin (1 nmol/L to 1 μmol/L), the change of the intracellular Ca concentration was measured using FDSS-6000 (λex: 480 nm, λem: […], manufactured by Hamamatsu Photonics K.K.). The integrated values of the increase rate of the intracellular Ca concentration were calculated for a group treated with the compounds of the present invention and a group treated with a vehicle, thus allowing capsaicin concentration-reaction curves to be obtained. A concentration (A2 value) of each of the compounds of the present invention, at which the capsaicin concentration-reaction curve obtained when the cells were treated with the vehicle was shifted two times rightward, was calculated. The inhibitory effects of the test compounds were compared using this value as an indicator.
In the case of O=C(/C=C1\CCCOc2cc(C(F)(F)F)ccc21)Nc1ccc(OCCCO)c2c1CCC(=O)N2 [EXAMPLE 37, (E)-2-(8-trifluoromethyl-3,4-dihydrobenzo[b]oxepin-5(2H)-ylidene)-N-(8-(3-hydroxypropoxy)-3,4-dihydro-2(1H)-quinolinon-5-yl)acetamide], the A2 value is reported as “A (A2 value of less than 100 nM)”. In the case of COCCN(C)C1Cc2ccc(NC(=O)/C=C3\CCCOc4cc(C(F)(F)F)ccc43)cc2NC1=O (stereo not shown) [EXAMPLE 45, (E)-2-(8-trifluoromethyl-3,4-dihydrobenzo[b]oxepin-5-(2H)-ylidene)-N-(3-(N-methyl-N-(2-methoxyethyl)amino)-3,4-dihydro-2(1H)-quinolinon-7-yl)acetamide], the A2 value is reported as “A (A2 value of less than 100 nM)”. With O=C(/C=C1\CCCOc2cc(C(F)(F)F)ccc21)Nc1cccc2c1CCC(=O)N2CCO [EXAMPLE 19, (E)-2-(8-trifluoromethyl-3,4-dihydrobenzo[b]oxepin-5(2H)-ylidene)-N-(1-(2-hydroxyethyl)-3,4-dihydro-2(1H)-quinolinon-5-yl)acetamide] the A2 value was “A (A2 value of less than 100 nM)”. In the case of CO[C@@H]1CCN(C2Cc3ccc(NC(=O)/C=C4\CCCOc5cc(C(F)(F)F)ccc54)cc3NC2=O)C1 (stereo partly drawn) [EXAMPLE 56, (E)-2-(8-trifluoromethyl-3,4-dihydrobenzo[b]oxepin-5(2H)-ylidene)-N-(3-((3S)-methoxypyrrolidin-1-yl)-3,4-dihydro-2(1H)-quinolinon-7-yl)acetamide], the A2 value is reported as “A (A2 value of less than 100 nM)”. For O=C(/C=C1\CCCOc2cc(C(F)(F)F)ccc21)Nc1ccc2c(c1)NC(=O)C(N1CCCOCC1)C2 (stereo not shown) [EXAMPLE 53, (E)-2-(8-trifluoromethyl-3,4-dihydrobenzo[b]oxepin-5(2H)-ylidene)-N-(3-([1,4]oxazepan-4-yl)-3,4-dihydro-2(1H)-quinolinon-7-yl)acetamide], the A2 value was “A (A2 value of less than 100 nM)”. In the case of O=C1CNc2cccc(NC(=O)/C=C3\CCCOc4cc(C(F)(F)F)ccc43)c2C1 [EXAMPLE 36, (E)-2-(8-trifluoromethyl-3,4-dihydrobenzo[b]oxepin-5(2H)-yliden)-N-(3-oxo-1,2,3,4-tetrahydroquinolin-5-yl)acetamide], the A2 value is reported as “A (A2 value of less than 100 nM)”. For O=C(/C=C1\CCCOc2cc(C(F)(F)F)ccc21)Nc1ccc2c(c1)NC(=O)CS2 [Example 4, (E)-2-(8-trifluoromethyl-3,4-dihydrobenzo[b]oxepin-5(2H)-ylidene)-N-(2H-benzo[1,4]thiazin-3(4H)-on-6-yl)acetamide], the A2 value was “A (A2 value of less than 100 nM)”. For COC1CCN(C2Cc3ccc(NC(=O)/C=C4\CCCOc5cc(C(F)(F)F)ccc54)cc3NC2=O)CC1 (stereo not shown) [EXAMPLE 55, (E)-2-(8-trifluoromethyl-3,4-dihydrobenzo[b]oxepin-5(2H)-ylidene)-N-(3-(4-methoxy-1-piperidinyl)-3,4-dihydro-2(1H)-quinolinon-7-yl)acetamide], the A2 value was “A (A2 value of less than 100 nM)”. With CC1Oc2ccc(NC(=O)/C=C3\CCCOc4cc(C(F)(F)F)ccc43)cc2NC1=O (stereo not shown) [Example 2, (E)-2-(8-trifluoromethyl-3,4-dihydrobenzo[b]oxepin-5(2H)-ylidene)-N-(2-methyl-4H-benzo[1,4]oxazin-3-on-6-yl)acetamide] the A2 value was “A (A2 value of less than 100 nM)”. In the case of O=C(/C=C1\CCCOc2cc(C(F)(F)F)ccc21)Nc1cccc2c1NCC(=O)N2 [EXAMPLE 21, (E)-2-(8-trifluoromethyl-3,4-dihydrobenzo[b]oxepin-5(2H)-ylidene)-N-(3,4-dihydro-2 (1H)-quinoxalinon-5-yl)acetamide], the A2 value is reported as “A (A2 value of less than 100 nM)”. With CC1(C)Cc2ccc(NC(=O)/C=C3\CCCOc4cc(C(F)(F)F)ccc43)cc2NC1=O [EXAMPLE 29, (E)-2-(8-trifluoromethyl-3,4-dihydrobenzo[b]oxepin-5(2H)-ylidene)-N-(3,3-dimethyl-3,4-dihydro-2(1H)-quinolinon-7-yl)acetamide] the A2 value was “A (A2 value of less than 100 nM)”. With CN1CC(=O)Nc2cccc(NC(=O)/C=C3\CCCOc4cc(C(F)(F)F)ccc43)c21 [EXAMPLE 22, (E)-2-(8-trifluoromethyl-3,4-dihydrobenzo[b]oxepin-5(2H)-ylidene)-N-(3,4-dihydro-4-methyl-2 (1H)-quinoxalinon-5-yl)acetamide] the A2 value was “A (A2 value of less than 100 nM)”. In the case of CN(C1CCOCC1)C1Cc2ccc(NC(=O)/C=C3\CCCOc4cc(C(F)(F)F)ccc43)cc2NC1=O (stereo not shown) [EXAMPLE 57, (E)-2-(8-trifluoromethyl-3,4-dihydrobenzo[b]oxepin-5(2H)-ylidene)-N-(3-(N-methyl-N-(4-tetrahydropyranyl)amino)-3,4-dihydro-2(1H)-quinolinon-7-yl)acetamide], the A2 value is reported as “B (A2 value of 100 nM or more)”. For O=C(/C=C1\CCCOc2cc(C(F)(F)F)ccc21)Nc1ccc2c(c1)NC(=O)C[S+]2[O-] (stereo not shown) [Example 5, (E)-2-(B-trifluoromethyl-3,4-dihydrobenzo[b]oxepin-5(2H)-ylidene)-N-(1-oxo-2H-benzo[1,4]thiazin-3(4H)-on-6-yl)acetamide], the A2 value was “B (A2 value of 100 nM or more)”. For CN1C(=O)N(Cc2ccccc2)Cc2ccc(NC(=O)/C=C3\CCCOc4cc(C(F)(F)F)ccc43)cc21 [EXAMPLE 39, (E)-2-(8-trifluoromethyl-3,4-dihydrobenzo[b]oxepin-5(2H)-ylidene)-N-(3-benzyl-1-methyl-3,4-dihydro-2(1H)-quinazolinon-7-yl)acetamide], the A2 value was “A (A2 value of less than 100 nM)”. For O=C(/C=C1\NCCOc2cc(C(F)(F)F)ccc21)Nc1ccc2c(c1)NC(=O)CC2 [EXAMPLE 27, (Z)-2-(8-trifluoromethyl-3,4-dihydrobenzo[f][1,4]oxazepin-5(2H)-ylidene)-N-(3,4-dihydroquinolin-2(1H)-on-7-yl)acetamide], the A2 value was “A (A2 value of less than 100 nM)”.

System: not listed separately
Assay: Effects on rectal temperature (8-1), oral administration to rats
Format: in vivo, rat
Conditions: oral single doses of 3, 10 and 30 mg/kg; 30, 60 and 120 minutes; maximum absolute difference vs vehicle
Procedure: (8-1) Effects on Rectal Temperature
A test compound was orally administered to rats at single doses of 3, 10 and 30 mg/kg. Then rectal temperature was measured 30, 60 and 120 minutes after administration.
Differences of the mean value between a group treated with test substance and a vehicle-treated group were calculated at all measuring points and, based on the maximum absolute value of differences, changes in rectal temperature were divided into the following three categories:
−: the maximum value was less than 0.5 degree Celsius +: the maximum value was more than 0.5 degree but less than 1.0 degree Celsius ++: the maximum value was more than 1.0 degree Celsius
With CC1(C)C/C(=C\C(=O)Nc2ccc3c(c2)NC(=O)C3(C)C)c2ccc(C(F)(F)F)cc2O1 [Example 109, (E)-2-(7-trifluoromethyl-2,2-dimethylchroman-4-ylidene)-N-(3,3-dimethyl-2(1H)-indolinon-6-yl)acetamide] the “Change in rectal temperature in rats” value was “− (the maximum value was less than 0.5 degree Celsius)”. In the case of O=C(/C=C1\CCCOc2cc(C(F)(F)F)ccc21)Nc1ccc2c(c1)NC(=O)C(N1CCOCC1)C2 (stereo not shown) [EXAMPLE 30, (E)-2-(8-trifluoromethyl-3,4-dihydrobenzo[b]oxepin-5(2H)-ylidene)-N-(3-(4-morpholinyl)-3,4-dihydro-2(1H)-quinolinon-7-yl)acetamide], the “Change in rectal temperature in rats” value is reported as “− (the maximum value was less than 0.5 degree Celsius)”. In the case of CN1c2cc(NC(=O)/C=C3\CC4(CCC4)Oc4cc(C(F)(F)F)ccc43)ccc2CCS1(=O)=O [Example 200, (E)-2-(7-trifluoromethyl-spiro[chroman-2,1′-cyclobutane]-4-ylidene)-N-(3,4-dihydro-2,2-dioxo-1-methyl-1H-2,1-benzothiazin-7-yl)acetamide], the “Change in rectal temperature in rats” value is reported as “− (the maximum value was less than 0.5 degree Celsius)”. With CC1(C)C(=O)Nc2cc(NC(=O)/C=C3\CC4(CCC4)Oc4cc(C(F)(F)F)ccc43)ccc21 [Example 110, (E)-2-(7-trifluoromethyl-spiro[chroman-2,1′-cyclobutane]-4-ylidene)-N-(3,3-dimethyl-2(1H)-indolinon-6-yl)acetamide] the “Change in rectal temperature in rats” value was “− (the maximum value was less than 0.5 degree Celsius)”. For CC1(C)C/C(=C\C(=O)Nc2ccc3c(c2)NC(=O)C(N2CCOCC2)C3)c2ccc(C(F)(F)F)cc2O1 (single isomer, unassigned) [Example 213, (E)-2-(7-trifluoromethyl-2,2-dimethylchroman-4-ylidene)-N-(3-(4-morpholinyl)-3,4-dihydro-2(1H)-quinolinon-7-yl)acetamide], the “Change in rectal temperature in rats” value was “− (the maximum value was less than 0.5 degree Celsius)”. In the case of CN1Cc2ccc(NC(=O)/C=C3\CCCOc4cc(C(F)(F)F)ccc43)cc2NC1=O [EXAMPLE 14, (E)-2-(8-trifluoromethyl-3,4-dihydrobenzo[b]oxepin-5(2H)-ylidene)-N-(3-methyl-3,4-dihydro-2(1H)-quinazolinon-7-yl)acetamide], the “Change in rectal temperature in rats” value is reported as “− (the maximum value was less than 0.5 degree Celsius)”.
